Test results as given in patent US6933312B2, “Pyrazole derivatives” (Agouron Pharmaceuticals, Inc., priority 2002, dated 2005).

Assays:
[1] = target: T1, purified recombinant HIV-1 reverse transcriptase (Human immunodeficiency virus type 1 group M subtype B, UniProt P04585); assay: Inhibition of HIV-1 Reverse Transcriptase Enzyme; assay type: biochemical; settings: Poly(rA)-oligo(dT) [3H]-SPA or [3H]-flashplate enzyme assay; 5% final DMSO
T1 construct: purified recombinant HIV-1 reverse transcriptase (RT, EC, 2.7.7.49); made in house; host or cells: Escherichia coli
Text: The activity of the compounds of the invention as reverse transcriptase inhibitors may be measured using the following assay.
Inhibition of HIV-1 Reverse Transcriptase Enzyme
Using purified recombinant HIV-1 reverse transcriptase (RT, EC, 2.7.7.49) obtained by expression in Escherichia Coli, a 96-well plate assay system is established for assaying a large number of samples using either the Poly(rA)-oligo(dT) Reverse Transcriptase [3H]-SPA enzyme assay system (Amersham NK9020) or the [3H]-flashplate enzyme assay system (NEN—SMP 103) and following the manufacturer's recommendations. The compounds are dissolved in 100% DMSO and diluted with the appropriate buffer to a 5% final DMSO concentration. The inhibitory activity is expressed in percent inhibition relative to DMSO control.

SMILES	melting point [°C]	IC50 [1] [µM]
Cc1n[nH]c(CN2Cc3ncccc3C2=O)c1Oc1cc(Cl)cc(C#N)c1	225 to 227	–
Cc1n[nH]c(CN2Cc3ccccc3C2=O)c1Oc1cc(Cl)cc(C#N)c1 [Example 1, 3-Chloro-5-[3-methyl-5-(1-oxo-1,3-dihydro-isoindol-2ylmethyl)-1H-pyrazol-4-yloxy]-benzonitrile]	–	0.076
Cc1n[nH]c(CN2Cc3ccccc3C2=O)c1Oc1cc(C#N)cc(C#N)c1 [Example 4, 5-[3-Methyl-5-(1-oxo-1,3-dihydro-isoindol-2-ylmethyl)-1H-pyrazol-4-yloxy]-isophthalonitrile]	247 to 248	0.505
